Series [1] relates to recombinant NL4-3 virus (Renilla luciferase in nef). The series can be described thus: HIV cell culture assay (antiviral activity, luciferase readout in MT-2 cells). The class given is cell-based. To be noted: Renilla, NL43. A digest of the protocol:
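MT-2 cells were infected for 4-5 days with 293T-derived recombinant NL4-3 reporter virus in the presence of serially diluted compound. Antiviral activity was quantified as luciferase activity using a live-cell substrate. EC50 was derived from the median effect equation.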

Series [2] is described as follows: Compound cytotoxicity, XTT-based colorimetric assay. It is filed as cell-based. The following applies: human; uninfected MT2 cells, day 4, XTT. Here is the method:
Compound cytotoxicity and the corresponding CC50 values were determined using the same protocol as described in the antiviral assay except that uninfected cells were used. Cytotoxicity was assessed on day 4 in uninfected MT2 cells by using an XTT (2,3-bis[2-Methoxy-4-nitro-5-sulfophenyl]-2H-tetrazolium-5-carboxyanilide inner salt)-based colorimetric assay (Sigma-Aldrich, St Louis, Mo.).
(In general: Formazan colour is commonly taken as a measure of viable cells.)

`Cn1nc(NS(C)(=O)=O)c2c(Cl)ccc(-n3c([C@H](Cc4cc(F)cc(F)c4)NC(=O)Cn4nc(C(F)F)c5c4C(F)(F)[C@H]4C[C@@H]54)nc4cc(-c5ccnn5C5CC5)ccc4c3=O)c21` (atropisomer, axis not shown; (P)) [Example 43, N—((S)-1-((3P)-3-(4-chloro-1-methyl-3-(methylsulfonamido)-1H-indazol-7-yl)-7-(1-cyclopropyl-1H-pyrazol-5-yl)-4-oxo-3,4-dihydroquinazolin-2-yl)-2-(3,5-difluorophenyl)ethyl)-2-((3bS,4aR)-3-(difluoromethyl)-5,5-difluoro-3b,4,4a,5-tetrahydro-1H-cyclopropa[3,4]cyclopenta[1,2-c]pyrazol-1-yl)acetamide]: the EC50 in series [1] was 0.13 nM. Further, the 50% cytotoxic concentration (CC50) at 4 days in series [2] is more than 100 nM.
For `Cn1nc(NS(C)(=O)=O)c2c(Cl)ccc(-n3c([C@H](Cc4cc(F)cc(F)c4)NC(=O)Cn4nc(C(F)F)c5c4C(F)(F)[C@@H]4C[C@H]54)nc4cc(-c5cnn(C6CC6)c5)ccc4c3=O)c21` (atropisomer, axis not shown; (P)) [Example 40, N—((S)-1-((3P)-3-(4-chloro-1-methyl-3-(methylsulfonamido)-1H-indazol-7-yl)-7-(1-cyclopropyl-1H-pyrazol-4-yl)-4-oxo-3,4-dihydroquinazolin-2-yl)-2-(3,5-difluorophenyl)ethyl)-2-((3bS,4aR)-3-(difluoromethyl)-5,5-difluoro-3b,4,4a,5-tetrahydro-1H-cyclopropa[3,4]cyclopenta[1,2-c]pyrazol-1-yl)acetamide] the same measures were 0.082 nM and more than 100 nM.
As for `Cn1nc(NS(C)(=O)=O)c2c(Cl)ccc(-n3c([C@H](Cc4cc(F)cc(F)c4)NC(=O)Cn4nc(C(F)F)c5c4C(F)(F)[C@@H]4C[C@H]54)nc4cc(-c5ccn(CCCF)n5)ccc4c3=O)c21` (atropisomer, axis not shown; (P)) [Example 51, N—((S)-1-((3P)-3-(4-chloro-1-methyl-3-(methylsulfonamido)-1H-indazol-7-yl)-7-(1-(3-fluoropropyl)-1H-pyrazol-3-yl)-4-oxo-3,4-dihydroquinazolin-2-yl)-2-(3,5-difluorophenyl)ethyl)-2-((3bS,4aR)-3-(difluoromethyl)-5,5-difluoro-3b,4,4a,5-tetrahydro-1H-cyclopropa[3,4]cyclopenta[1,2-c]pyrazol-1-yl)acetamide], the half-maximal effective concentration (EC50) in series [1] was 0.042 nM. The half-maximal cytotoxic concentration (CC50) at 4 days in series [2] was more than 100 nM.
As to `Cn1nc(NS(C)(=O)=O)c2c(Cl)ccc(-n3c([C@H](Cc4cc(F)cc(F)c4)NC(=O)Cn4nc(C(F)F)c5c4C(F)(F)[C@@H]4C[C@H]54)nc4cc(-c5ccnc(CF)n5)ccc4c3=O)c21` (atropisomer, axis not shown; (P)) [Example 55, N—((S)-1-((3P)-3-(4-chloro-1-methyl-3-(methylsulfonamido)-1H-indazol-7-yl)-7-(2-(fluoromethyl)pyrimidin-4-yl)-4-oxo-3,4-dihydroquinazolin-2-yl)-2-(3,5-difluorophenyl)ethyl)-2-((3bS,4aR)-3-(difluoromethyl)-5,5-difluoro-3b,4,4a,5-tetrahydro-1H-cyclopropa[3,4]cyclopenta[1,2-c]pyrazol-1-yl)acetamide], in series [1], the 50% effective concentration (EC50) was 0.056 nM. The molecule further had a CC50 at 4 days in series [2] of more than 100 nM.
For `Cn1nc(NS(C)(=O)=O)c2c(Cl)ccc(-n3c([C@H](Cc4cc(F)cc(F)c4)NC(=O)Cn4nc(C(F)F)c5c4C(F)(F)[C@@H]4C[C@H]54)nc4cc(-c5ccc6ocnc6c5)ccc4c3=O)c21` (atropisomer, axis not shown; (P)) [Example 46, N—((S)-1-(7-(benzo[d]oxazol-5-yl)-(3P)-3-(4-chloro-1-methyl-3-(methylsulfonamido)-1H-indazol-7-yl)-4-oxo-3,4-dihydroquinazolin-2-yl)-2-(3,5-difluorophenyl)ethyl)-2-((3bS,4aR)-3-(difluoromethyl)-5,5-difluoro-3b,4,4a,5-tetrahydro-1H-cyclopropa[3,4]cyclopenta[1,2-c]pyrazol-1-yl)acetamide] the same measures were 0.34 nM and more than 100 nM.
The like results for `Cc1cc(-c2ccc3c(=O)n(-c4ccc(Cl)c5c(NS(C)(=O)=O)nn(C)c45)c([C@H](Cc4cc(F)cc(F)c4)NC(=O)Cn4nc(C(F)F)c5c4C(F)(F)[C@@H]4C[C@H]54)nc3c2)nn1CC(F)(F)C(F)(F)F` (atropisomer, axis not shown; (P)) [Example 60, N—((S)-1-((3P)-3-(4-chloro-1-methyl-3-(methylsulfonamido)-1H-indazol-7-yl)-7-(5-methyl-1-(2,2,3,3,3-pentafluoropropyl)-1H-pyrazol-3-yl)-4-oxo-3,4-dihydroquinazolin-2-yl)-2-(3,5-difluorophenyl)ethyl)-2-((3bS,4aR)-3-(difluoromethyl)-5,5-difluoro-3b,4,4a,5-tetrahydro-1H-cyclopropa[3,4]cyclopenta[1,2-c]pyrazol-1-yl)acetamide] were, in that order, 0.21 nM and more than 100 nM.
The like results for `Cn1nc(NS(C)(=O)=O)c2c(Cl)ccc(-n3c([C@H](Cc4cc(F)cc(F)c4)NC(=O)Cn4nc(C(F)F)c5c4C(F)(F)[C@@H]4C[C@H]54)nc4cc(-c5ccnc(C(F)(F)F)n5)ccc4c3=O)c21` (atropisomer, axis not shown; (P)) [Example 27, N—((S)-1-((3P)-3-(4-chloro-1-methyl-3-(methylsulfonamido)-1H-indazol-7-yl)-4-oxo-7-(2-(trifluoromethyl)pyrimidin-4-yl)-3,4-dihydroquinazolin-2-yl)-2-(3,5-difluorophenyl)ethyl)-2-((3bS,4aR)-3-(difluoromethyl)-5,5-difluoro-3b,4,4a,5-tetrahydro-1H-cyclopropa[3,4]cyclopenta[1,2-c]pyrazol-1-yl)acetamide] were, in that order, 0.066 nM and more than 100 nM.
For the molecule `CC(F)(F)Cn1ccc(-c2ccc3c(=O)n(-c4ccc(Cl)c5c(NS(C)(=O)=O)nn(CC(F)F)c45)c([C@H](Cc4cc(F)cc(F)c4)NC(=O)Cn4nc(C(F)F)c5c4C(F)(F)[C@@H]4C[C@H]54)nc3c2)n1` (atropisomer, axis not shown; (P)) [Example 64, N—((S)-1-((3P)-3-(4-chloro-1-(2,2-difluoroethyl)-3-(methylsulfonamido)-1H-indazol-7-yl)-7-(1-(2,2-difluoropropyl)-1H-pyrazol-3-yl)-4-oxo-3,4-dihydroquinazolin-2-yl)-2-(3,5-difluorophenyl)ethyl)-2-((3bS,4aR)-3-(difluoromethyl)-5,5-difluoro-3b,4,4a,5-tetrahydro-1H-cyclopropa[3,4]cyclopenta[1,2-c]pyrazol-1-yl)acetamide], the half-maximal effective concentration (EC50) in series [1] is 0.087 nM. In series [2], the CC50 at 4 days is more than 100 nM.
For `C[C@H](C(=O)N[C@@H](Cc1cc(F)cc(F)c1)c1nc2cc(-c3ccn(CC(C)(F)F)n3)ccc2c(=O)n1-c1ccc(Cl)c2c(NS(C)(=O)=O)nn(C)c12)n1ccc(C2CC2)n1` (atropisomer, axis not shown; (P)) [Example 65, (R)—N—((S)-1-((3P)-3-(4-chloro-1-methyl-3-(methylsulfonamido)-1H-indazol-7-yl)-7-(1-(2,2-difluoropropyl)-1H-pyrazol-3-yl)-4-oxo-3,4-dihydroquinazolin-2-yl)-2-(3,5-difluorophenyl)ethyl)-2-(3-cyclopropyl-1H-pyrazol-1-yl)propanamide] the same measures were 0.17 nM and more than 100 nM.

By EC50 is commonly meant the concentration at which the effect is half-maximal. A word on the CC50: it is the concentration at which the toxic effect on the cells reaches its halfway point. A low value points to greater toxicity to the cells.
